Data: US5444155A, “Molecules with antibody combining sites that induce asymmetry” (The Scripps Research Institute, priority 1991, dated 1995)
pKi: −log10 of the molar value. Where two headings read alike, the source gives them in different places.

Experiments:
[1] = test system: monoclonal antibody (catalytic receptor) produced by hybridoma 37E8, ATCC HB 10868; type: biochemical, mouse
[2] = biological target: T1, Butyl Cholinesterase EC 3.1.1.8, from horse serum (Sigma) (Equus caballus, UniProt P81908); experiment: Hydrolysis of Compound 1 by authentic butyl cholinesterase, assayed by gas chromatography; type: biochemical
T1 construct: purchased Sigma Chemical Co., St. Louis
T1 sequence (P81908 whole entry): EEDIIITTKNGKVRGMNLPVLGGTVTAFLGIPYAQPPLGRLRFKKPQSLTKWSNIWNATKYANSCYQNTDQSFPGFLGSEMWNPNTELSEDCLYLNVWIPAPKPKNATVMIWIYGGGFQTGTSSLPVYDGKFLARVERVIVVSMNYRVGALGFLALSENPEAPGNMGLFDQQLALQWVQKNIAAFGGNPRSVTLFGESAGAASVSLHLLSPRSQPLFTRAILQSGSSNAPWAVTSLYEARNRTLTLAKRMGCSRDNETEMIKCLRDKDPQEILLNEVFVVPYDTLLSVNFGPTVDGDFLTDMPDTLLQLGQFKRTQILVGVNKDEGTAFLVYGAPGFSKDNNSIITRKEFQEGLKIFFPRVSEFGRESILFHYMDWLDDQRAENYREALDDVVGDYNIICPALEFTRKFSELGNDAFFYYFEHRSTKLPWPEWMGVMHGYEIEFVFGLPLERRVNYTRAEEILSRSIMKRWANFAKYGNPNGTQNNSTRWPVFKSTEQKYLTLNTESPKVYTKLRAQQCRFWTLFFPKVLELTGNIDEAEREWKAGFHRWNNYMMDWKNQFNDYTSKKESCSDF
Protocol: The production of Compound 2 by a monoclonal antibody composition of this invention was assayed at a concentration of 10 μM monoclonal antibody and 1 mM Compound 1 in pH 8.0 ATE buffer (0.52M ACES, 0.52M Tris, 0.01M ethanolamine) at 37° C. The initial rate of hydrolysis of Compound 1 by the monoclonal antibodies produced by hybridoma 37E8 followed Michaelis-Menten kinetics (Table 1 hereinafter).
The conditions used for this study were as follows. Monoclonal antibodies produced by hybridoma 37E8 (10 μM) were added to a solution of 800 μM Compound 1 and 25 μM Compound C. Under these conditions, the substrate concentration was at saturation for the monoclonal antibody (4.5Km) and at approximately Km for either cholinesterase.
^b EC 3.1.1.8. From horse serum (Sigma Chemical Co., St. Louis),
All assays consisted of determining the amount of Compound 2 by gas chromatography analysis (Hewlett Packard 5890A, carbowax 30 m, 0.53 mm bore, capillary column) with ethyl levulinate as an internal standard.

[3] = biological target: Acetyl Cholinesterase EC 3.1.1.7, Type VS, electric eel (Sigma) (Electrophorus electricus, UniProt O42275); experiment: Hydrolysis of Compound 1 by authentic acetyl cholinesterase, assayed by gas chromatography
Chain of Acetyl Cholinesterase EC 3.1.1.7, Type VS, electric eel (Sigma) (O42275 24-633): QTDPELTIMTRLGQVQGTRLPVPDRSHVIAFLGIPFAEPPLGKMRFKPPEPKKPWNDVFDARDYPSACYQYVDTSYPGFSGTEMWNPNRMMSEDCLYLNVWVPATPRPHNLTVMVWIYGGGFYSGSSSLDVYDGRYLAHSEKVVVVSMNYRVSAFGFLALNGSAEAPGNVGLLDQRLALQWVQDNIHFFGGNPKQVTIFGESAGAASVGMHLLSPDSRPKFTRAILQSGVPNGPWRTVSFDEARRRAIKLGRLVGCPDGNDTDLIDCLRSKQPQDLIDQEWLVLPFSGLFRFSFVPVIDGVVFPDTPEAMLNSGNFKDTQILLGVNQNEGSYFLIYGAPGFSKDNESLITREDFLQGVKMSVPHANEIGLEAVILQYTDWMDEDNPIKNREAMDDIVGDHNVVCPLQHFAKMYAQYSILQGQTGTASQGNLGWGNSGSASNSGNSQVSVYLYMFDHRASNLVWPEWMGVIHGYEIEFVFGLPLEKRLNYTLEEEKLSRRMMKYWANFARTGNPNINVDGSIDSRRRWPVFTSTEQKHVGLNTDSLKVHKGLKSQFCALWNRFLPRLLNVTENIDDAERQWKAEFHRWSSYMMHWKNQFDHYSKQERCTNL

Row | SMILES | kcat (hydrolysis of Compound 1) ([1]; pH 8) | Km ([1]; pH 8, read-out: Km (hydrolysis of Compound 1)) | inhibition of the hydrolytic reaction by free Compound C [1] | pKi ([1]; read-out: Ki (free Compound C)) | pKi ([1]; read-out: ki (inhibition of hydrolysis of Compound 1 by free Compound C)) | inhibition by free Compound C ([2]; 800 μM Compound 1, 25 μM Compound C) | pKi ([2]; 0.0117 units enzyme used, read-out: ki (hydrolysis of Compound 1, inhibitor Compound C)) | pKi [3] | inhibition by free Compound C [3]
1 | CC(=O)O[C@@H]1C=C[C@H](OC(C)=O)C1 [Compound 1, cis-3,5-diactoxycyclopent-1-ene] | 0.007 | 177 µM |  |  |  |  |  |  | 
2 | CC(=O)O[C@H]1C=C[C@@H](OP(=O)(O)CCCCCC(=O)O)C1 [Compound C] |  |  | extensive inhibition | 5.15 | 5.15 | no inhibition | 3.10 | 3.20 | no inhibition
